Measured values as given in ChEMBL document CHEMBL4616725, “Global PROTAC Toolbox for Degrading BCR-ABL Overcomes Drug-Resistant Mutants and Adverse Effects” (J Med Chem, 2020).
The source made the active and inactive calls. No cut-off for these calls is given here.

What was measured:
[1] = biological target: Protein cereblon/Mast/stem cell growth factor receptor Kit (Homo sapiens, UniProt P10721+Q96SW2); assay: Protac activity at Cereblon/C-Kit in human K562 cells assessed as reduction in C-Kit protein levels at 3 to 30000 nM incubated for 48 hrs by Western blot analysis; type: ADME, cell-based; conditions: k562, 48 h, 30 µM
Sequence of Protein cereblon/Mast/stem cell growth factor receptor Kit (P10721 whole entry): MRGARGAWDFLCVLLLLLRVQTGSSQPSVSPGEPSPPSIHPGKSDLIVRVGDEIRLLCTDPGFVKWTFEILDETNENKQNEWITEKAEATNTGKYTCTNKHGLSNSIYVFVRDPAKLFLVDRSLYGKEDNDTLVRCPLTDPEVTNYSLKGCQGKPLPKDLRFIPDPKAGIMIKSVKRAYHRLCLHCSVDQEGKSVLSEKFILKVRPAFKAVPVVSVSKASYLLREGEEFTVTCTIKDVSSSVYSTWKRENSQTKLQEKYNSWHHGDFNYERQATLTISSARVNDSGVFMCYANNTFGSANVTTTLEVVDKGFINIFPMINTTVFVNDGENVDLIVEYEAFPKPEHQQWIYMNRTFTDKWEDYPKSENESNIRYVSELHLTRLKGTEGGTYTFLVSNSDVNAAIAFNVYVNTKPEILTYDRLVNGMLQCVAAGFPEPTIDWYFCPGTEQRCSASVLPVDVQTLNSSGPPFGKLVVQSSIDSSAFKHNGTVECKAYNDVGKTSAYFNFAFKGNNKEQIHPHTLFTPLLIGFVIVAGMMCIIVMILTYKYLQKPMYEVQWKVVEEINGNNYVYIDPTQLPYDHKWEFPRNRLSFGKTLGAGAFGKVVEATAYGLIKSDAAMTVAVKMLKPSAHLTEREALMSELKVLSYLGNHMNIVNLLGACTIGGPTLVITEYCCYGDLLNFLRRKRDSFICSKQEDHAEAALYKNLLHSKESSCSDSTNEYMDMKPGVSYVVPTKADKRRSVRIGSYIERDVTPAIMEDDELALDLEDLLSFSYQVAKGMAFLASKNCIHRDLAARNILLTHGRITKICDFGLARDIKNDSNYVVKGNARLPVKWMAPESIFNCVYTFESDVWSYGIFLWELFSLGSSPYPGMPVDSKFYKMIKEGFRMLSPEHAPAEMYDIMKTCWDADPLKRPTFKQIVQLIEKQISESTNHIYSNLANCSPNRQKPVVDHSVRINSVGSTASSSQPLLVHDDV
Sequence of Protein cereblon/Mast/stem cell growth factor receptor Kit (Q96SW2 whole entry): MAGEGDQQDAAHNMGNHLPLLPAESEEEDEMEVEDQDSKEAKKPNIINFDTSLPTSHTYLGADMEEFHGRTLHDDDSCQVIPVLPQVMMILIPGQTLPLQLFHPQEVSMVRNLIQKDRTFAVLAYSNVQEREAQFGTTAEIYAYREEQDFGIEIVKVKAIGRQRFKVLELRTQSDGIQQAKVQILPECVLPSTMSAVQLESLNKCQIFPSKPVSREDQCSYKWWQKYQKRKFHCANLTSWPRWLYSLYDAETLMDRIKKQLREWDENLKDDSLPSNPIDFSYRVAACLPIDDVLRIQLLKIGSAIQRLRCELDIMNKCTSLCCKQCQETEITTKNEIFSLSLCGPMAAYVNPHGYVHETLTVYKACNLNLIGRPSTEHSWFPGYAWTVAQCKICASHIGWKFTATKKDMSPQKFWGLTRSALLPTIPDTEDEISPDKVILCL

HUVEC [2] = assay: Antiproliferative activity against human HUVEC incubated for 3 days by CCK8 assay; type: cell-based; conditions: 72 h
[3] = biological target: Protein cereblon/Tyrosine-protein kinase ABL1/Breakpoint cluster region protein (Homo sapiens, UniProt P00519+P11274+Q96SW2, T315I); type: cell-based, BaF3
HUVEC [4] = assay: Toxicity in HUVEC assessed as inhibition of tube formation at 1 uM incubated for 20 hrs by optical microscopy based matrigel-based assay; type: cell-based; conditions: human
[5] = test system: Protein cereblon/Tyrosine-protein kinase ABL1/Breakpoint cluster region protein (Homo sapiens), P00519+P11274+Q96SW2 [V468F]; assay: Protac activity at Cereblon/BCR/ABL V468F mutant (unknown origin) expressed in human HeLa cells assessed as reduction in BCR-ABL V468F mutant protein levels at 10 to 10000 nM incubated for 32 hrs by Western blot analysis; type: cell-based
[6] = biological target: Protein cereblon/Proto-oncogene tyrosine-protein kinase Src (Homo sapiens, UniProt P12931+Q96SW2); assay: Protac activity at Cereblon/Src in human K562 cells assessed as reduction in Src protein levels at 3 to 30000 nM incubated for 48 hrs by Western blot analysis; type: ADME, cell-based; conditions: k562, 48 h, 30 µM
Sequence of Protein cereblon/Proto-oncogene tyrosine-protein kinase Src (P12931 2-536 limits assumed): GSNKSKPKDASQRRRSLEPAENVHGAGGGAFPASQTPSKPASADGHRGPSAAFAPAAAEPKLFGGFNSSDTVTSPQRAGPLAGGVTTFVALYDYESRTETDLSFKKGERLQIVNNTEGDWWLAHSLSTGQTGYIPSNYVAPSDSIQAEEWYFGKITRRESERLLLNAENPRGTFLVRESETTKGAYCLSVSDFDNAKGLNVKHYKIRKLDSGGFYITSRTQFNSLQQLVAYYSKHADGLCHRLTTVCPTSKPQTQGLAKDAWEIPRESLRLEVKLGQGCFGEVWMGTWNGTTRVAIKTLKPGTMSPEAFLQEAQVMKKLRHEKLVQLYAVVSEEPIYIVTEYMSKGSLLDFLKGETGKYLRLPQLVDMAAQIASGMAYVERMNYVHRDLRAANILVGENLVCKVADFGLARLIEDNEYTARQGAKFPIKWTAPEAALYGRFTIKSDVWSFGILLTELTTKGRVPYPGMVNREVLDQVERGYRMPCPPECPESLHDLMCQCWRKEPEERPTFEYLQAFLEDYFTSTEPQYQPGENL
Sequence of Protein cereblon/Proto-oncogene tyrosine-protein kinase Src (Q96SW2 whole entry): as the sequence (Q96SW2 whole entry) above

[7] = biological target: T1, Tyrosine-protein kinase ABL1 (Homo sapiens, UniProt P00519, T315I); assay: Safety index, ratio of compound IC50 to ponatinib IC50 for inhibition of human ABL T315I mutant using EAIYAAPFAKKK substrate and [gamma-33P]-ATP incubated for 40 mins by scintillation counting method
[8] = biological target: Protein cereblon/Platelet-derived growth factor receptor alpha (Homo sapiens, UniProt P16234+Q96SW2); assay: Protac activity at Cereblon/PDGFRalpha in human K562 cells assessed as reduction in PDGFRalpha protein levels at 3 to 30000 nM incubated for 48 hrs by Western blot analysis; type: ADME, cell-based; conditions: k562, 48 h, 30 µM
[9] = test system: Protein cereblon/Tyrosine-protein kinase ABL1/Breakpoint cluster region protein (Homo sapiens), P00519+P11274+Q96SW2 [T315I]; assay: Protac activity at Cereblon/BCR/ABL T315I mutant (unknown origin) expressed in mouse BaF3 cells assessed as reduction in BCR-ABL T315I mutant protein levels at 3 to 30000 nM incubated for 32 hrs by Western blot analysis; type: cell-based
BaF3 = assay: Antiproliferative activity against wild type mouse BA/F3 cells incubated for 3 days by CCK8 assay; type: cell-based; conditions: BaF3, 72 h
[10] = test system: Protein cereblon/Tyrosine-protein kinase ABL1/Breakpoint cluster region protein (Homo sapiens), P00519+P11274+Q96SW2 [H396R]; assay: Protac activity at Cereblon/BCR/ABL H396R mutant (unknown origin) expressed in human HeLa cells assessed as reduction in BCR-ABL H396R mutant protein levels at 10 to 10000 nM incubated for 32 hrs by Western blot analysis; type: cell-based
[11] = biological target: T2, Proto-oncogene tyrosine-protein kinase Src (Homo sapiens, UniProt P12931); assay: Inhibition of human c-SRC using poly(Glu,Tyr)4:1 substrate and [gamma-33P]-ATP incubated for 40 mins by scintillation counting method
T2 sequence (P12931 2-536 limits assumed): as the sequence (P12931 2-536 limits assumed) above

[12] = biological target: T3, Protein cereblon/Tyrosine-protein kinase ABL1/Breakpoint cluster region protein (Homo sapiens, UniProt P00519+P11274+Q96SW2); assay: Protac activity at Cereblon/BCR/ABL in human K562 cells assessed as synergistic antiproliferation effect by measuring combination index at 0.25 to 4 times alone antiproliferative EC50 ibn presence of hedgehog pathway inhibitor […] by Chou-Talalay method; type: cell-based
[13] = biological target: T1, Tyrosine-protein kinase ABL1; assay: Inhibition of human ABL T315I mutant using EAIYAAPFAKKK substrate and [gamma-33P]-ATP incubated for 40 mins by scintillation counting method
[14] = biological target: Vascular endothelial growth factor receptor 2 (Homo sapiens, UniProt P35968); assay: Inhibition of human VEGFR2 using MBP substrate and [gamma-33P]-ATP incubated for 40 mins by scintillation counting method
Sequence of Vascular endothelial growth factor receptor 2 (P35968 whole entry): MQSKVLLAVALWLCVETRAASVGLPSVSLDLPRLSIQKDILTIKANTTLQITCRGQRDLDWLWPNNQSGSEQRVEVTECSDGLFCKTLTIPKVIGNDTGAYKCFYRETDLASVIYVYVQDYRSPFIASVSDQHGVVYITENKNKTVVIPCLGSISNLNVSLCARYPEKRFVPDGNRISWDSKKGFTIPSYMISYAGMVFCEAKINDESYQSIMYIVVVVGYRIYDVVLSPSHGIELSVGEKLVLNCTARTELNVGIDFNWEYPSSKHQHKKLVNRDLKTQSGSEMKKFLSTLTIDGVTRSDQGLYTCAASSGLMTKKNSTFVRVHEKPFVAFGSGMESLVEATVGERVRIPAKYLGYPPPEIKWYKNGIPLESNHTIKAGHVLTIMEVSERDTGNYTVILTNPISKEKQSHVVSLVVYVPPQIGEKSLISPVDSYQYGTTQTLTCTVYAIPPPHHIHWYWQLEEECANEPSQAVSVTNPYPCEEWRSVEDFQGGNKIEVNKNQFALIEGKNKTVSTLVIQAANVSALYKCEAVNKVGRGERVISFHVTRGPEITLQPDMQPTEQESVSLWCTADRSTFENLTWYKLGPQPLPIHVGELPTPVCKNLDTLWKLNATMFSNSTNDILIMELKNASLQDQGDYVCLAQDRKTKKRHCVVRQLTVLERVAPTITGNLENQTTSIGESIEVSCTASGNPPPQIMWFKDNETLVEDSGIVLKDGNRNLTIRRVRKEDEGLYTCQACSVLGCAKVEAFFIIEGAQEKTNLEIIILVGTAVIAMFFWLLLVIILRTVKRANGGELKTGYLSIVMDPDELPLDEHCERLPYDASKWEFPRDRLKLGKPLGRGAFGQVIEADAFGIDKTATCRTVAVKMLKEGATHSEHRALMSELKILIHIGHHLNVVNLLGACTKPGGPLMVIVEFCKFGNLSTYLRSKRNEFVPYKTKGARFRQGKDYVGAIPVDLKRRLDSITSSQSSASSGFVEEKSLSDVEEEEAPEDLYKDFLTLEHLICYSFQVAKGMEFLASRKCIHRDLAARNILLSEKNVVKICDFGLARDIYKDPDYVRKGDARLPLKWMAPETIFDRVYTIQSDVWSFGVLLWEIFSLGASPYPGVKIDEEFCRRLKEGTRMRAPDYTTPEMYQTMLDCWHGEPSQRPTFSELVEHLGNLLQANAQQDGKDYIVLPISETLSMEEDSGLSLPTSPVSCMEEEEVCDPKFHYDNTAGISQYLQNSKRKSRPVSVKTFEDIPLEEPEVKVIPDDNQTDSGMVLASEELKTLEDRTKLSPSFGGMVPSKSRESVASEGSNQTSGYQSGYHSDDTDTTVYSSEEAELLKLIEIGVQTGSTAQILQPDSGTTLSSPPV

[15] = biological target: Protein cereblon/Receptor-type tyrosine-protein kinase FLT3 (Homo sapiens, UniProt P36888+Q96SW2); assay: Protac activity at Cereblon/Flt3 in human K562 cells assessed as reduction in Flt3 protein levels at 3 to 30000 nM incubated for 48 hrs by Western blot analysis; type: ADME, cell-based
Sequence of Protein cereblon/Receptor-type tyrosine-protein kinase FLT3 (P36888 whole entry): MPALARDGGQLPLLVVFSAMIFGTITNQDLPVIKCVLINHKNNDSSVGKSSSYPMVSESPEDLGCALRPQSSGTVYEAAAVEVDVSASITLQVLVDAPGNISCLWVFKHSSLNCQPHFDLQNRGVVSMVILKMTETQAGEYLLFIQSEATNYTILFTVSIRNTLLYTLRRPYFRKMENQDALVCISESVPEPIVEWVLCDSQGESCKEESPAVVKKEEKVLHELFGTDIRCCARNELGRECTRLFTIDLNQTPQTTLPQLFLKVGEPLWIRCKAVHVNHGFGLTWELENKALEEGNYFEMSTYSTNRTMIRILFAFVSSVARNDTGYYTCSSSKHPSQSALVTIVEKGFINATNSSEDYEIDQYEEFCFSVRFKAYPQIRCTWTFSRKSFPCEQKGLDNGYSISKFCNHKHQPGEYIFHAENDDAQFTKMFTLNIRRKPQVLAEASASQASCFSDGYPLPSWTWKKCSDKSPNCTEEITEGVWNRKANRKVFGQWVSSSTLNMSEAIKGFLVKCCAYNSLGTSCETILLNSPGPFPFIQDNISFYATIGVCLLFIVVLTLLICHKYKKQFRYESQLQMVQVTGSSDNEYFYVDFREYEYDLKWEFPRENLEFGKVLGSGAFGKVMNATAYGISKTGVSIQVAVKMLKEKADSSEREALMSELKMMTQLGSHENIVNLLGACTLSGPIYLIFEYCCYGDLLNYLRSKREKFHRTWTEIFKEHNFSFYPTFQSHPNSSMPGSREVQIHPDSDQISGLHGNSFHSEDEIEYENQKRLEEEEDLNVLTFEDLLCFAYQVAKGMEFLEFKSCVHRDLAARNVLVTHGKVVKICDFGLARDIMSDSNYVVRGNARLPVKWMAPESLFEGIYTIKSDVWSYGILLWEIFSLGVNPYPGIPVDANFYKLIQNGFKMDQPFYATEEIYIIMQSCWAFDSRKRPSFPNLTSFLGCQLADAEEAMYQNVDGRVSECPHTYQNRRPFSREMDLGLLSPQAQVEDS
Sequence of Protein cereblon/Receptor-type tyrosine-protein kinase FLT3 (Q96SW2 whole entry): as the sequence (Q96SW2 whole entry) above

H9c2 = assay: Antiproliferative activity against rat H9C2 cells incubated for 3 days by CCK8 assay; type: cell-based; conditions: H9c2, 72 h
[16] = biological target: Tyrosine-protein kinase Lyn (Homo sapiens, UniProt P07948); assay: Inhibition of human LYN using poly(Glu,Tyr)4:1 substrate and [gamma-33P]-ATP incubated for 40 mins by scintillation counting method
[17] = test system: Protein cereblon/Tyrosine-protein kinase ABL1/Breakpoint cluster region protein (Homo sapiens), P00519+P11274+Q96SW2 [E255K]; assay: Protac activity at Cereblon/BCR/ABL E255K mutant (unknown origin) expressed in human HeLa cells assessed as reduction in BCR-ABL E255K mutant protein levels at 10 to 10000 nM incubated for 32 hrs by Western blot analysis; type: cell-based
K562 = assay: Antiproliferative activity against human K562 cells incubated for 3 days by CCK8 assay; type: functional, cell-based; conditions: K562, 72 h
[18] = biological target: T3, Protein cereblon/Tyrosine-protein kinase ABL1/Breakpoint cluster region protein; assay: Protac activity at Cereblon/BCR/ABL in human K562 cells assessed as induction of BCR-ABL degradation incubated for 32 to 48 hrs by Western blot analysis; type: cell-based
[19] = biological target: T2, Proto-oncogene tyrosine-protein kinase Src; assay: Safety index, ratio of compound IC50 to ponatinib IC50 for inhibition of human c-SRC using poly(Glu,Tyr)4:1 substrate and [gamma-33P]-ATP incubated for 40 mins by scintillation counting method

Cc1ccc(C(=O)Nc2ccc(CN3CCN(C(=O)CCCc4cn(CCOCCOCCOCCNc5cccc6c5C(=O)N(C5CCC(=O)NC5=O)C6=O)nn4)CC3)c(C(F)(F)F)c2)cc1C#Cc1cnc2cccnn12 (configuration not stated)
Activity [1]: Not Active | EC50 (HUVEC [2]): > 10000 nM | EC50 [3]: 28.5 nM | Activity (HUVEC [4]): Non-Toxic | Activity [5]: Active | Activity [6]: Not Active | Ratio IC50 [7]: 13 | Activity [8]: Not Active | Activity [9]: Active | EC50 (BaF3): > 10000 nM | Activity [10]: Active | IC50 [11]: 2580 nM | CI [12]: < 1 | IC50 [13]: 13.1 nM | IC50 [14]: 441 nM | IC50 [15]: > 300 nM | EC50 (H9c2): > 10000 nM | IC50 [16]: 44.2 nM | Activity [17]: Active | IC50 (K562): 7.5 nM | DC50 [18]: 20 nM | Ratio IC50 [19]: 257
